Counter-ions that a name gives are not always drawn. Like-named read-outs stand apart in the source and are kept apart here.
How the values were obtained:
Rat FAAH = biological target: T1, Rat FAAH (Rattus norvegicus, UniProt P97612); assay: Assay Method 2: rat FAAH assay (3H-anandamide hydrolysis in cell homogenate); format: biochemical
T1 construct: expressed in transfected cells; host or cells: SK-N-MC cells stably transfected with rat FAAH cDNA (G418 selection)
T1 sequence (P97612 1-579): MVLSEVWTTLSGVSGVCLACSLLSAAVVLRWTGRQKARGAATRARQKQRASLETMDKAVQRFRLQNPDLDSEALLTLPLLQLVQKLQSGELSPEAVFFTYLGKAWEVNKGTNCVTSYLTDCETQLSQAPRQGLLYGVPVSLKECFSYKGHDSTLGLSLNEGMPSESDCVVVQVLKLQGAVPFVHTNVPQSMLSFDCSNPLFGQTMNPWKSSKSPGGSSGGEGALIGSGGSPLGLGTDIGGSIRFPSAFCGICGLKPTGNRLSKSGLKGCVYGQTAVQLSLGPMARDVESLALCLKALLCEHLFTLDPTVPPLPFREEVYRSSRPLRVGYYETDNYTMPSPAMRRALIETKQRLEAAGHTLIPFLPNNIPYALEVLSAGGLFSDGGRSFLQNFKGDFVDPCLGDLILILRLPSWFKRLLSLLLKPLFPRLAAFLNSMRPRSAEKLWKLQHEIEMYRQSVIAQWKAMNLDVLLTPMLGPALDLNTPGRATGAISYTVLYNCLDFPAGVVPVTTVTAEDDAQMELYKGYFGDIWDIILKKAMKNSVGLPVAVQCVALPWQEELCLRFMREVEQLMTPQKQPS
How it was run: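 Homogenates of T84 cells or SK-N-MC cells stably transfected with rat FAAH, in pH 9 Tris/EDTA/glycerol/Triton buffer, incubated 1 h at room temperature with 3H-anandamide. Released labeled ethanolamine separated from substrate on activated charcoal and counted by scintillation; values averaged over runs.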

FAAH = biological target: T2, FAAH (Homo sapiens, UniProt O00519); assay: Assay Method 1: human FAAH assay (3H-anandamide hydrolysis in cell homogenate); format: biochemical; set-up: expressed in transfected cells; host or cells: SK-N-MC cells stably transfected with human FAAH cDNA (G418 selection); alternatively T84 cell pellets
T2 sequence (O00519 1-579): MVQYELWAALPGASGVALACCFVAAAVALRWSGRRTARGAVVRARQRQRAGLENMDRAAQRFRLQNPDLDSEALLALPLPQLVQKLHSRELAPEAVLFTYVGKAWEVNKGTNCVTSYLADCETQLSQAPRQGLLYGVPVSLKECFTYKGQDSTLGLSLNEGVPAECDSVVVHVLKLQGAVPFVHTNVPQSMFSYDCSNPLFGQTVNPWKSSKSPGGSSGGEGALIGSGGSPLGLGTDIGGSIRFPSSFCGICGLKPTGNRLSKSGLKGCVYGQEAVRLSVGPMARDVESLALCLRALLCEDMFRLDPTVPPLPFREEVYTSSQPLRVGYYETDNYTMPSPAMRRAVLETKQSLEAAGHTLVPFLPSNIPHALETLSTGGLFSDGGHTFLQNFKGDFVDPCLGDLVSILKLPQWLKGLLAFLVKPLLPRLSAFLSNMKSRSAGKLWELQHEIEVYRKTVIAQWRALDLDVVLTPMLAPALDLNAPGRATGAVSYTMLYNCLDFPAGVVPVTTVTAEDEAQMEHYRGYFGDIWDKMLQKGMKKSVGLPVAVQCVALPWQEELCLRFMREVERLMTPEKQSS
How it was run: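 Homogenates of T84 cells or SK-N-MC cells stably transfected with human FAAH, in pH 9 Tris/EDTA buffer with 0.02% Triton X-100. Incubated 1 h at rt with compound and 80 nM (final) [3H-ethanolamine]-anandamide. Released 3H-ethanolamine separated on charcoal filters and counted by scintillation.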

IC50 (FAAH; read-out: Assay 1 IC50) [nM] | IC50 (Rat FAAH; read-out: Assay 2 IC50) [nM] | Structure (SMILES) | IC50 (Rat FAAH) [nM] | IC50 (FAAH) [nM]
40 | 100 | O=C(Nc1ccc(-n2cccn2)nc1)N1CC2(CCN(Cc3cccc(Oc4ccc(Cl)cc4)c3)CC2)C1 [Example 45, 7-[3-(4-Chloro-phenoxy)-benzyl]-2,7-diaza-spiro[3.5]nonane-2-carboxylic acid (6-pyrazol-1-yl-pyridin-3-yl)-amide, trifluoroacetic acid salt] | – | –
1000 | 1000 | O=C(Nc1ccc(-n2cncn2)nc1)N1CC2(CCN(Cc3cccc(Oc4ccc(Cl)cc4)c3)CC2)C1 [Example 46, 7-[3-(4-Chloro-phenoxy)-benzyl]-2,7-diaza-spiro[3.5]nonane-2-carboxylic acid (6-[1,2,4]triazol-1-yl-pyridin-3-yl)-amide, trifluoroacetic acid salt] | – | –
1500 | 8000 | O=C(Nc1ccc(Cl)nc1)N1CC2(CCN(Cc3cccc(Oc4ccc(Cl)cc4)c3)CC2)C1 [Example 48, 7-[3-(4-Chloro-phenoxy)-benzyl]-2,7-diaza-spiro[3.5]nonane-2-carboxylic acid (6-chloro-pyridin-3-yl)-amide, trifluoroacetic acid salt] | – | –
1800 | 8000 | COc1ccc(NC(=O)N2CC3(CCN(Cc4cccc(Oc5ccc(Cl)cc5)c4)CC3)C2)cn1 [Example 49, 7-[3-(4-Chloro-phenoxy)-benzyl]-2,7-diaza-spiro[3.5]nonane-2-carboxylic acid (6-methoxy-pyridin-3-yl)-amide, trifluoroacetic acid salt] | – | –
820 | 8000 | N#Cc1ccc(NC(=O)N2CC3(CCN(Cc4cccc(Oc5ccc(Cl)cc5)c4)CC3)C2)cn1 [Example 50, 7-[3-(4-Chloro-phenoxy)-benzyl]-2,7-diaza-spiro[3.5]nonane-2-carboxylic acid (6-cyano-pyridin-3-yl)-amide, trifluoroacetic acid salt] | – | –
660 | 670 | O=C(Nc1cccc2nonc12)N1CC2(CCN(Cc3cccc(Oc4ccc(Cl)cc4)c3)CC2)C1 [Example 52, 7-[3-(4-Chloro-phenoxy)-benzyl]-2,7-diaza-spiro[3.5]nonane-2-carboxylic acid benzo[1,2,5]oxadiazol-4-ylamide, trifluoroacetic acid salt] | – | –
10 | 10 | O=C(Nc1cnccc1Cl)N1CC2(CCN(Cc3cccc(Oc4ccc(Cl)cc4)c3)CC2)C1 [Example 53, 7-[3-(4-Chloro-phenoxy)-benzyl]-2,7-diaza-spiro[3.5]nonane-2-carboxylic acid (4-chloro-pyridin-3-yl)-amide, trifluoroacetic acid salt] | – | –
170 | 190 | O=C(Nc1cccnc1Cl)N1CC2(CCN(Cc3cccc(Oc4ccc(Cl)cc4)c3)CC2)C1 [Example 54, 7-[3-(4-Chloro-phenoxy)-benzyl]-2,7-diaza-spiro[3.5]nonane-2-carboxylic acid (2-chloro-pyridin-3-yl)-amide, trifluoroacetic acid salt] | – | –
6930 | 6930 | O=C(Nc1ccc(N2CCOCC2)nc1)N1CC2(CCN(Cc3cccc(Oc4ccc(Cl)cc4)c3)CC2)C1 [Example 55, 7-[3-(4-Chloro-phenoxy)-benzyl]-2,7-diaza-spiro[3.5]nonane-2-carboxylic acid (6-morpholin-4-yl-pyridin-3-yl)-amide, trifluoroacetic acid salt] | – | –
260 | 200 | O=C(Nc1cncc(Cl)c1)N1CC2(CCN(Cc3cccc(Oc4ccc(Cl)cc4)c3)CC2)C1 [Example 57, 7-[3-(4-Chloro-phenoxy)-benzyl]-2,7-diaza-spiro[3.5]nonane-2-carboxylic acid (5-chloro-pyridin-3-yl)-amide, trifluoroacetic acid salt] | – | –
300 | 690 | O=C(Nc1ccc(F)nc1)N1CC2(CCN(Cc3cccc(Oc4ccc(Cl)cc4)c3)CC2)C1 [Example 58, 7-[3-(4-Chloro-phenoxy)-benzyl]-2,7-diaza-spiro[3.5]nonane-2-carboxylic acid (6-fluoro-pyridin-3-yl)-amide, trifluoroacetic acid salt] | – | –
250 | 80 | COc1cc(NC(=O)N2CC3(CCN(Cc4cccc(Oc5ccc(Cl)cc5)c4)CC3)C2)ncn1 [Example 59, 7-[3-(4-Chloro-phenoxy)-benzyl]-2,7-diaza-spiro[3.5]nonane-2-carboxylic acid (6-methoxy-pyrimidin-4-yl)-amide, trifluoroacetic acid salt] | – | –
300 | 120 | O=C(Nc1ccc(Cl)nn1)N1CC2(CCN(Cc3cccc(Oc4ccc(Cl)cc4)c3)CC2)C1 [Example 60, 7-[3-(4-Chloro-phenoxy)-benzyl]-2,7-diaza-spiro[3.5]nonane-2-carboxylic acid (6-chloro-pyridazin-3-yl)-amide, trifluoroacetic acid salt] | – | –
> 10000 | > 10000 | Cc1cc(NC(=O)N2CC3(CCN(Cc4cccc(Oc5ccc(Cl)cc5)c4)CC3)C2)nn1C [Example 61, 7-[3-(4-Chloro-phenoxy)-benzyl]-2,7-diaza-spiro[3.5]nonane-2-carboxylic acid (1,5-dimethyl-1H-pyrazol-3-yl)-amide, trifluoroacetic acid salt] | – | –
> 10000 | > 10000 | Cn1cc(Br)c(NC(=O)N2CC3(CCN(Cc4cccc(Oc5ccc(Cl)cc5)c4)CC3)C2)n1 [Example 62, 7-[3-(4-Chloro-phenoxy)-benzyl]-2,7-diaza-spiro[3.5]nonane-2-carboxylic acid (4-bromo-1-methyl-1H-pyrazol-3-yl)-amide, trifluoroacetic acid salt] | – | –
1450 | 500 | CCn1nccc1NC(=O)N1CC2(CCN(Cc3cccc(Oc4ccc(Cl)cc4)c3)CC2)C1 [Example 63, 7-[3-(4-Chloro-phenoxy)-benzyl]-2,7-diaza-spiro[3.5]nonane-2-carboxylic acid (2-ethyl-2H-pyrazol-3-yl)-amide, trifluoroacetic acid salt] | – | –
240 | 1060 | Cc1nc2cc(NC(=O)N3CC4(CCN(Cc5cccc(Oc6ccc(Cl)cc6)c5)CC4)C3)ccc2o1 [Example 65, 7-[3-(4-Chloro-phenoxy)-benzyl]-2,7-diaza-spiro[3.5]nonane-2-carboxylic acid (2-methyl-benzooxazol-5-yl)-amide] | – | –
130 | 600 | O=C(Nc1noc2ncccc12)N1CC2(CCN(Cc3cccc(Oc4ccc(Cl)cc4)c3)CC2)C1 [Example 66, 7-[3-(4-Chloro-phenoxy)-benzyl]-2,7-diaza-spiro[3.5]nonane-2-carboxylic acid isoxazolo[5,4-b]pyridin-3-ylamide, trifluoroacetic acid salt] | – | –

Structure (SMILES) | IC50 (FAAH; read-out: Assay 1 IC50) [nM] | IC50 (Rat FAAH; read-out: Assay 2 IC50) [nM] | IC50 (Rat FAAH) [nM] | IC50 (FAAH) [nM]
O=C(Nc1cccnn1)N1CC2(CCN(Cc3cccc(Oc4ccc(Cl)cc4)c3)CC2)C1 [Example 44, 7-[3-(4-Chloro-phenoxy)-benzyl]-2,7-diaza-spiro[3.5]nonane-2-carboxylic acid pyridazin-3-ylamide, trifluoroacetic acid salt] | 430 | – | 260 | –
O=C(Nc1cc[nH]n1)N1CC2(CCN(Cc3cccc(Oc4ccc(Cl)cc4)c3)CC2)C1 [Example 56, 7-[3-(4-Chloro-phenoxy)-benzyl]-2,7-diaza-spiro[3.5]nonane-2-carboxylic acid (1H-pyrazol-3-yl)-amide, trifluoroacetic acid salt] | 3690 | – | 1670 | –
O=C(Nc1nnn[nH]1)N1CC2(CCN(Cc3cccc(Oc4ccc(Cl)cc4)c3)CC2)C1 [Example 64, 7-[3-(4-Chloro-phenoxy)-benzyl]-2,7-diaza-spiro[3.5]nonane-2-carboxylic acid (2H-tetrazol-5-yl)-amide, trifluoroacetic acid salt] | – | 60 | – | 3160
